Target: T1, SIRT1 (Homo sapiens, UniProt Q96EB6)
T1 sequence (Q96EB6 1-747): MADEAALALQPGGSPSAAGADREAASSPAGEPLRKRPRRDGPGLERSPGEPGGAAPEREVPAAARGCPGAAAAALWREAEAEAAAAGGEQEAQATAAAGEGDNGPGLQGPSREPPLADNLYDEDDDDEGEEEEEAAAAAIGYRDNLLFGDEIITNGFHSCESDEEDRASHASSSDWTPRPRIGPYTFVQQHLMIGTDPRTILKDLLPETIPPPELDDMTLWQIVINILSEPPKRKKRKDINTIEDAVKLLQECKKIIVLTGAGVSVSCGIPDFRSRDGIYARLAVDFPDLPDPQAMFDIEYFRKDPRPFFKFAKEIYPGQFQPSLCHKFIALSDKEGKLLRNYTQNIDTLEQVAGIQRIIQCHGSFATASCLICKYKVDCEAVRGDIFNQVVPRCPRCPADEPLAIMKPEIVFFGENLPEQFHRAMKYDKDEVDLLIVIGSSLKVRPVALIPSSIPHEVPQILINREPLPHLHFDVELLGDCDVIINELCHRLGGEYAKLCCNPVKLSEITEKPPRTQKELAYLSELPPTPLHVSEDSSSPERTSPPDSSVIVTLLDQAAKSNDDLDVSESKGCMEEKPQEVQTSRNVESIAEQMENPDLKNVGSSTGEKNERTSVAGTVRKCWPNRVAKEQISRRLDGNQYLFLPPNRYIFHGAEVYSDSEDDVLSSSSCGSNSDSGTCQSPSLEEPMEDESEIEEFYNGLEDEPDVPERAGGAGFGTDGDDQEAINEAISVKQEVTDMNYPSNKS
Assay: Mass spectrometry based assay to identify modulators of SIRT1 activity (deacetylation of p53-based acetylated peptide substrate)
Format: biochemical
Details: for Emax: 25 min, read-out: % FOLD ACT. (percent maximum fold activation); for Emax / EC1.5: SIRT1 activation
Procedure, shortened: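 His-tagged human SIRT1 (10 nM, E. coli) incubated 25 min at 25 °C with […] p53-derived acetylated 5TMR peptide and 120 μM βNAD+ in pH 8 Tris-acetate buffer, then formic acid-stopped. Mass spectrometry quantifies acetylated vs deacetylated peptide; nicotinamide and DMSO controls.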

Compound	Emax	EC1.5	EC1.5 (concentration giving 1.5-fold activation)
Cc1cccnc1NC(=O)N1CCOc2ccc(-c3cccc(C(F)(F)F)c3)nc21 [Compound 569]	≤ 200%	C (EC1.5>25 μM)	–
O=C(Nc1ccccn1)N1CCCc2ccc(-c3cccc(F)c3)nc21 [Compound 649]	> 200%	A (EC1.5<1.0 μM)	–
CCN1CCCN(C(=O)Nc2cccc(C)n2)c2nc(-c3cccc(Cl)c3)ccc21 [Compound 797]	≤ 200%	–	> 25 µM
O=C(Nc1ccncc1)N1CCOc2cnc(-c3cccc(Cl)c3)nc21 [Compound 720]	≤ 200%	–	1 to 25 µM
Cc1ccc(NC(=O)N2CCOc3ccc(-c4cccc(C(F)(F)F)c4)nc32)cn1 [Compound 554]	> 200%	A (EC1.5<1.0 μM)	–
O=C(Nc1ccc(F)cn1)N1CCCCc2ccc(-c3cccc(C(F)(F)F)c3)nc21 [Compound 816]	≤ 200%	–	> 25 µM
O=C(Nc1ccncc1)N1CCOc2ncc(-c3cccc(C(F)(F)F)c3)nc21 [Compound 723]	≤ 200%	–	1 to 25 µM
Cc1cc(NC(=O)N2CCCOc3ccc(-c4ccnc(C)c4)nc32)ccn1 [Compound 656]	> 200%	B (EC1.5 1-25 μM)	–
O=C(Nc1ccncn1)N1CCCOc2ccc(-c3cccc(Cl)c3)nc21 [Compound 625]	> 200%	A (EC1.5<1.0 μM)	–
O=C(Nc1ccccn1)N1CCCCc2ccc(-c3cccc(Cl)c3)nc21 [Compound 754]	≤ 200%	–	1 to 25 µM
O=C(Nc1ccncc1)N1CCC(F)(F)c2ccc(-c3cccc(C(F)(F)F)c3)nc21 [Compound 743, 4,4-difluoro-N-(pyridin-4-yl)-7-(3-(trifluoromethyl)phenyl)-3,4-dihydro-1,8-naphthyridine-1(2H)-carboxamide]	> 200%	–	1 to 25 µM
O=C(Nc1ccccn1)N1CCC(F)(F)c2ccc(-c3cccc(C(F)(F)F)c3)nc21 [Compound 814, 4,4-difluoro-N-(pyridin-2-yl)-7-(3-(trifluoromethyl)phenyl)-3,4-dihydro-1,8-naphthyridine-1(2H)-carboxamide]	≤ 200%	–	> 25 µM
Cc1cc(NC(=O)N2CCCOc3ccc(-c4cccc(C(F)(F)F)c4)nc32)ccn1 [Compound 577]	> 200%	B (EC1.5 1-25 μM)	–
CN1C(=O)CN(C(=O)Nc2ncn[nH]2)c2nc(-c3cccc(C(F)(F)F)c3)ccc21 [Compound 524]	≤ 200%	C (EC1.5>25 μM)	–
CN1CCN(C(=O)Nc2nccs2)c2nc(-c3cccc(C(F)(F)F)c3)ccc21 [Compound 529, 1-methyl-N-(thiazol-2-yl)-6-(3-(trifluoromethyl)phenyl)-2,3-dihydropyrido[2,3-b]pyrazine-4(1H)-carboxamide]	> 200%	–	–
O=C(Nc1ccncc1)N1CCCCc2ccc(-c3cccc(Cl)c3)nc21 [Compound 728, 2-(3-chlorophenyl)-N-(pyridin-4-yl)-7,8-dihydro-5H-pyrido[2,3-b]azepine-9(6H)-carboxamide]	> 200%	–	1 to 25 µM
O=C(Nc1cncnc1)N1CCC(F)(F)c2ccc(-c3cccc(C(F)(F)F)c3)nc21 [Compound 753]	> 200%	–	1 to 25 µM
O=C(Nc1ccncn1)N1CCOc2c(N3CCNCC3)nc(-c3cccc(F)c3)nc21 [Compound 759]	> 200%	–	1 to 25 µM
Cc1cnccc1NC(=O)N1CCC(F)(F)c2ccc(-c3cccc(C(F)(F)F)c3)nc21 [Compound 744]	≤ 200%	–	> 25 µM
O=C(Oc1cccnc1)N1CCOc2ccc(-c3cccc(C(F)(F)F)c3)nc21 [Compound 562]	≤ 200%	C (EC1.5>25 μM)	–

Reference: US9556201B2, “Bicyclic pyridines and analogs as sirtuin modulators” (GLAXOSMITHKLINE LLC, priority 2009, dated 2017)
